Measurements as given in ChEMBL document CHEMBL1201862, “PubChem BioAssay data set” (2004).
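Dose response: 5 concentrations. Exposure: 48 h. Format: 96-well plates. Endpoint: linear interpolation; highest concentration if not reached. The concentration for 50% growth inhibition is given as GI50.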 Calls of active or inactive are those of the source. No stated cut-off is given here; in the data, active = GI50 up to about 1.1 µM and inactive = higher.

Tests used:
Experiment in all cases: NCI-60 cell line screen, 48 h
CAKI-1 = test system: CAKI-1
A549 = test system: A549
MDA-N = test system: MDA-N
NCI-H23 = test system: NCI-H23
SNB-19 = test system: SNB-19
NCI/ADR-RES = test system: NCI/ADR-RES
BT-549 = test system: BT-549
SF-268 = test system: SF-268
A498 = test system: A498
LOX IMVI = test system: LOX IMVI
M14 = test system: M14
SK-MEL-5 = test system: SK-MEL-5
K562 = test system: K562
HOP-62 = test system: HOP-62
HCC 2998 = test system: HCC 2998
MDA-MB-231 = test system: MDA-MB-231
PC-3 = test system: PC-3
HL-60 = test system: HL-60
SNB-75 = test system: SNB-75
HCT-116 = test system: HCT-116
HT-29 = test system: HT-29
NCI-H460 = test system: NCI-H460
DU-145 = test system: DU-145
Malme-3M = test system: Malme-3M
OVCAR-3 = test system: OVCAR-3
786-0 = test system: 786-0
UO-31 = test system: UO-31
SF-295 = test system: SF-295
MDA-MB-435 = test system: MDA-MB-435
MCF7 = test system: MCF7
UACC-257 = test system: UACC-257
NCI-H522 = test system: NCI-H522
SW-620 = test system: SW-620
TK-10 = test system: TK-10
OVCAR-5 = test system: OVCAR-5
RXF 393 = test system: RXF 393
MOLT-4 = test system: MOLT-4
CCRF-CEM = test system: CCRF-CEM
COLO 205 = test system: COLO 205
U-251 = test system: U-251
KM12 = test system: KM12
T47D = test system: T47D
RPMI-8226 = test system: RPMI-8226
UACC-62 = test system: UACC-62
SF-539 = test system: SF-539
NCI-H226 = test system: NCI-H226
ACHN = test system: ACHN
SK-MEL-2 = test system: SK-MEL-2
SK-MEL-28 = test system: SK-MEL-28
EKVX = test system: EKVX
IGROV-1 = test system: IGROV-1
Hs-578T = test system: Hs-578T
HCT-15 = test system: HCT-15
OVCAR-8 = test system: OVCAR-8
SK-OV-3 = test system: SK-OV-3
SN12C = test system: SN12C

CCOC(=O)c1nnsc1NC(=O)NN was tested, and the GI50 (CAKI-1) was > 100 µM (inactive), the GI50 (A549) was > 100 µM (inactive) and the GI50 (MDA-N) was > 100 µM (inactive). The GI50 (NCI-H23) was > 100 µM (inactive), the GI50 (SNB-19) was > 100 µM (inactive) and the GI50 (NCI/ADR-RES) was > 100 µM (inactive). For the same compound, the GI50 (BT-549) was > 100 µM (inactive), the GI50 (SF-268) was > 100 µM (inactive) and the GI50 (A498) was > 100 µM (inactive). The GI50 (LOX IMVI) was 82.2 µM (inactive), the GI50 (M14) was > 100 µM (inactive) and the GI50 (SK-MEL-5) was > 100 µM (inactive). The GI50 (K562) was 41.1 µM (inactive), the GI50 (HOP-62) was > 100 µM (inactive) and the GI50 (HCC 2998) was > 100 µM (inactive). The GI50 (MDA-MB-231) was 25.4 µM (inactive), the GI50 (PC-3) was > 100 µM (inactive) and the GI50 (HL-60) was > 100 µM (inactive). The GI50 (SNB-75) was > 100 µM (inactive), the GI50 (HCT-116) was > 100 µM (inactive) and the GI50 (HT-29) was > 100 µM (inactive). The GI50 (NCI-H460) was > 100 µM (inactive), the GI50 (DU-145) was > 100 µM (inactive) and the GI50 (Malme-3M) was > 100 µM (inactive). The GI50 (OVCAR-3) was > 100 µM (inactive), the GI50 (786-0) was 89.3 µM (inactive) and the GI50 (UO-31) was > 100 µM (inactive). For the same compound, the GI50 (SF-295) was > 100 µM (inactive), the GI50 (MDA-MB-435) was > 100 µM (inactive) and the GI50 (MCF7) was > 100 µM (inactive). For the same compound, the GI50 (UACC-257) was > 100 µM (inactive), the GI50 (NCI-H522) was > 100 µM (inactive) and the GI50 (SW-620) was > 100 µM (inactive). The GI50 (TK-10) was > 100 µM (inactive), the GI50 (OVCAR-5) was > 100 µM (inactive) and the GI50 (RXF 393) was > 100 µM (inactive). For the same compound, the GI50 (MOLT-4) was > 10 µM (inactive), the GI50 (CCRF-CEM) was > 100 µM (inactive) and the GI50 (COLO 205) was > 100 µM (inactive). For the same compound, the GI50 (U-251) was > 100 µM (inactive), the GI50 (KM12) was > 100 µM (inactive) and the GI50 (T47D) was > 100 µM (inactive). The GI50 (RPMI-8226) was > 100 µM (inactive), the GI50 (UACC-62) was > 100 µM (inactive) and the GI50 (SF-539) was > 100 µM (inactive). For the same compound, the GI50 (NCI-H226) was > 100 µM (inactive), the GI50 (ACHN) was > 100 µM (inactive) and the GI50 (SK-MEL-2) was > 100 µM (inactive). The GI50 (SK-MEL-28) was > 100 µM (inactive), the GI50 (EKVX) was > 100 µM (inactive) and the GI50 (IGROV-1) was > 100 µM (inactive). The GI50 (Hs-578T) was > 100 µM (inactive), the GI50 (HCT-15) was > 100 µM and the GI50 (OVCAR-8) was > 100 µM (inactive). For the same compound, the GI50 (SK-OV-3) was > 100 µM (inactive) and the GI50 (SN12C) was > 100 µM (inactive).
